Laboratory results published in patent publication US20150352108A1, “AMINO-PYRIMIDINE COMPOUNDS AS INHIBITORS OF TBK1 AND/OR IKK EPSILON” (Alzheimer's Institute of America, priority 2009, published 2015).
pIC50: −log10 of the molar value.

Tests used:
IKKε = biological target: T1, IKKε (Homo sapiens, UniProt Q14164); experiment: In-vitro IKKε kinase assay ([γ33]ATP filter-plate); assay type: biochemical; settings: text bins; read-out: IC50 for inhibition of the kinase activity of IKKε
T1 construct: His-tag; made in house; host or cells: Sf9 insect cells
T1 sequence (Q14164 1-716): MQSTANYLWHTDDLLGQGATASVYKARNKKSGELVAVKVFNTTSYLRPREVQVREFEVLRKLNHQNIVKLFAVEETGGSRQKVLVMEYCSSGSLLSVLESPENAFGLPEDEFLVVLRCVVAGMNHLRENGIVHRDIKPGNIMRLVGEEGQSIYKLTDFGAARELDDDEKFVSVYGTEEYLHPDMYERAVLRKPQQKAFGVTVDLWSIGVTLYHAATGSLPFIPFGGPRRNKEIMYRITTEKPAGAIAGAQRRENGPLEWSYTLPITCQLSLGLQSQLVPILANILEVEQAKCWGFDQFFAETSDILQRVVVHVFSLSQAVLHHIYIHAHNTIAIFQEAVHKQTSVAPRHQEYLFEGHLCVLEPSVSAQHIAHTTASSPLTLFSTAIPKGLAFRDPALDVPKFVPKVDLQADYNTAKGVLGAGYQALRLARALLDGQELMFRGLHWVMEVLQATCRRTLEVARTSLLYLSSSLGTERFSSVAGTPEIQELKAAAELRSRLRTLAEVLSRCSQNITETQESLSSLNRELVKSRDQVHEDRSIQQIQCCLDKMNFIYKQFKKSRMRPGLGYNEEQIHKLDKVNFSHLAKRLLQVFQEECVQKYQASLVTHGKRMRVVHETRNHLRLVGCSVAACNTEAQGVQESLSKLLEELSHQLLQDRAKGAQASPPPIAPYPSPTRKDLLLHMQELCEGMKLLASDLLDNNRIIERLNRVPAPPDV
Summary of the method: (§1)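 His-tagged IKKε and TBK1 from Sf9 cells were assayed with myelin basic protein or casein and [γ33]ATP at 2×Km ATP (32 μM for IKKε, 60 μM for TBK1). Enzyme was 0.1 or 0.015 μg/ml for IKKε and 0.1 or 0.02 μg/ml for TBK1 (normal/sensitized). Reactions ran 30-45 min, were filter-captured, scintillation-counted, and normalized to DMSO after background subtraction.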

TBK1 = biological target: T2, TBK1 (Homo sapiens, UniProt Q9UHD2); experiment: In-vitro TBK1 kinase assay ([γ33]ATP filter-plate); assay type: biochemical; settings: text bins; read-out: IC50 for inhibition of the kinase activity of TBK1
T2 construct: His-tag; made in house; host or cells: Sf9 insect cells
T2 sequence (Q9UHD2 1-729): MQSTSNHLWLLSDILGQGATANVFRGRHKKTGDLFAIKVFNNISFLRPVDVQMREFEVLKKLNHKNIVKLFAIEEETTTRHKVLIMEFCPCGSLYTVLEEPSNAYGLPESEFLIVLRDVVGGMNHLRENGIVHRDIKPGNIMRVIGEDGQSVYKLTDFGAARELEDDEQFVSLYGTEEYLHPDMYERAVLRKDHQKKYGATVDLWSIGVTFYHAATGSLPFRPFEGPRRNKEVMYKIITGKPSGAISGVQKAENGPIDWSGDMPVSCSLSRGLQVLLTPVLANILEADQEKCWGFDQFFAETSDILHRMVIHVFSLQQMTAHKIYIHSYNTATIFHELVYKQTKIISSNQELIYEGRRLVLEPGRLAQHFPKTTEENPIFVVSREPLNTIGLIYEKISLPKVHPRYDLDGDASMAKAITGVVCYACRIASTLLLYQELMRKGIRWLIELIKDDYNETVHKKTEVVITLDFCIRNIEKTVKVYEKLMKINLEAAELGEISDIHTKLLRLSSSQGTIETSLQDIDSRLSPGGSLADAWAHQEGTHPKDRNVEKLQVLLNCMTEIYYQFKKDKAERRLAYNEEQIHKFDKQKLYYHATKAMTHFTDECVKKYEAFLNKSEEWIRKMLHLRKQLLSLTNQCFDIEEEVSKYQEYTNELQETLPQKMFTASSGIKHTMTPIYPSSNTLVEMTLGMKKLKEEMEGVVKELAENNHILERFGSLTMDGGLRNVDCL
Summary of the method: as §1

Structure (SMILES): N#Cc1cc(-c2ccnc(Nc3ccc(N4CCOCC4)cc3)n2)ccc1OCC1CCCCO1 (stereo not drawn) [Example 205, 5-(2-{[4-(Morpholin-4-yl)phenyl]amino}pyrimidin-4-yl)-2-(tetrahydro-2H-pyran-2-ylmethoxy) benzonitrile]
- pIC50 (IKKε): 7.30 to 8.30
- pIC50 (TBK1): 7.00 to 8.00

Structure (SMILES): COc1ccc(-c2ccnc(Nc3ccc(OC4CCN(C)CC4)c(OC)c3)n2)cc1C#N [compound 302, 2-Methoxy-5-[2-({3-methoxy-4-[(1-methylpiperidin-4-yl)oxy]phenyl}amino)pyrimidin-4-yl]benzonitrile]
- pIC50 (IKKε): 7.30 to 8.30
- pIC50 (TBK1): 7.00 to 8.00

Structure (SMILES): C[C@H](O)C(=O)N1CCC(Oc2ccc(-c3ccnc(Nc4ccc(N5CCOCC5)cc4)n3)cc2C#N)CC1 [Example 6, 2-({1-[(2S)-2-Hydroxypropanoyl]piperidin-4-yl}oxy)-5-(2-{[4-(morpholin-4-yl)phenyl]amino}pyrimidin-4-yl)benzonitrile]
- pIC50 (IKKε): > 8.30
- pIC50 (TBK1): > 8.00

Structure (SMILES): CCN1CCN(c2ccc(-c3ccnc(Nc4ccc(N5CCOCC5)cc4)n3)cc2C#N)CC1 [Example 123, 2-(4-Ethylpiperazin-1-yl)-5-(2-{[4-(morpholin-4-yl)phenyl]amino}pyrimidin-4-yl)benzonitrile]
- pIC50 (IKKε): 7.30 to 8.30
- pIC50 (TBK1): 7.00 to 8.00

Structure (SMILES): CC(C)Oc1ccc(-c2ccnc(Nc3ccc(N4CCN(C)CC4)cc3)n2)cc1C#N [compound 335, 5-(2-{[4-(4-Methylpiperazin-1-yl)phenyl]amino}pyrimidin-4-yl)-2-(propan-2-yloxy)benzonitrile]
- pIC50 (IKKε): > 8.30
- pIC50 (TBK1): > 8.00

Structure (SMILES): COc1ccc(Nc2nccc(-c3ccc(C)c(C#N)c3)n2)cc1OC [Example 85, 5-{2-[(3,4-Dimethoxyphenyl)amino]pyrimidin-4-yl}-2-methylbenzonitrile]
- pIC50 (IKKε): 7.30 to 8.30
- pIC50 (TBK1): 7.00 to 8.00

Structure (SMILES): N#Cc1cc(-c2ccnc(Nc3ccc(N4CCOCC4)c(F)c3)n2)ccc1OC1CCOCC1 [Example 24, 5-(2-{[3-fluoro-4-(morpholin-4-yl)phenyl]amino}pyrimidin-4-yl)-2-(tetrahydro-2H-pyran-4-yloxy)benzonitrile]
- pIC50 (IKKε): > 8.30
- pIC50 (TBK1): > 8.00

Structure (SMILES): N#Cc1cccc(-c2ccnc(Nc3cccc(NC(=O)NC4CCCC4)c3)n2)c1 [Example 201, 1-(3-{[4-(3-Cyanophenyl)pyrimidin-2-yl]amino}phenyl)-3-cyclopentylurea]
- pIC50 (IKKε): 7.30 to 8.30
- pIC50 (TBK1): 7.00 to 8.00

Structure (SMILES): CS(=O)(=O)N1CCC(Nc2ccc(Nc3nccc(-c4ccc(OC5CCOCC5)c(C#N)c4)n3)cc2)CC1 [Example 171, 5-{2-[(4-{[1-(methylsulfonyl)piperidin-4-yl]amino}phenyl)amino]pyrimidin-4-yl}-2-(tetrahydro-2H-pyran-4-yloxy)benzonitrile]
- pIC50 (IKKε): > 8.30
- pIC50 (TBK1): > 8.00

Structure (SMILES): N#Cc1cc(-c2ccnc(Nc3ccc(N4CCOCC4)cc3)n2)ccc1OC1CCN(C(=O)C2(N)CC2)C1 (stereo not drawn) [Example 189, 2-({1-[(1-aminocyclopropyl)carbonyl]pyrrolidin-3-yl}oxy)-5-(2-{[4-(morpholin-4-yl)phenyl]amino}pyrimidin-4-yl)benzonitrile]
- pIC50 (IKKε): 6.30 to 7.30
- pIC50 (TBK1): 6.30 to 7.00

Structure (SMILES): COc1ccc(-c2ccnc(Nc3ccc(S(=O)(=O)NCCO)c(OC)c3)n2)cc1C#N [Example 281, 4-{[4-(3-Cyano-4-methoxyphenyl)pyrimidin-2-yl]amino}-N-(2-hydroxyethyl)-2-methoxybenzene-sulfonamide]
- pIC50 (IKKε): 7.30 to 8.30
- pIC50 (TBK1): 7.00 to 8.00

Structure (SMILES): COc1cc(Nc2nccc(-c3ccc(NC(=O)C(C)C)c(C#N)c3)n2)ccc1N1CCNC(=O)C1 [Example 88, N-[2-Cyano-4-(2-{[3-methoxy-4-(3-oxopiperazin-1-yl)phenyl]amino}pyrimidin-4-yl)phenyl]-2-methylpropanamide]
- pIC50 (IKKε): > 8.30
- pIC50 (TBK1): > 8.00

Structure (SMILES): COC(=O)c1ccc(Nc2nccc(-c3ccc(OC4CCN(C(=O)[C@H](C)O)CC4)c(C#N)c3)n2)cc1 [compound 342, methyl 4-({4-[3-cyano-4-({1-[(2S)-2-hydroxypropanoyl]piperidin-4-yl}oxy)phenyl]pyrimidin-2-yl}amino)benzoate]
- pIC50 (IKKε): 7.30 to 8.30
- pIC50 (TBK1): > 8.00

Structure (SMILES): COC1CN(C(=O)c2ccc(Nc3nccc(-c4ccc(NC(=O)C5CC5)c(C#N)c4)n3)cc2)C1 [compound 665, N-{2-Cyano-4-[2-({4-[(3-methoxyazetidin-1-yl)carbonyl]phenyl}amino)pyrimidin-4-yl]phenyl} cyclopropane-carboxamide]
- pIC50 (IKKε): > 8.30
- pIC50 (TBK1): > 8.00

Structure (SMILES): COc1ccc(Nc2nccc(-c3ccc(OC(C)(C)C)c(C#N)c3)n2)cc1OC [Example 169, 2-tert-Butoxy-5-{2-[(3,4-dimethoxyphenyl)amino]pyrimidin-4-yl}benzonitrile]
- pIC50 (IKKε): 7.30 to 8.30
- pIC50 (TBK1): 7.00 to 8.00

Structure (SMILES): COCCNC(=O)c1ccc(Nc2nccc(-c3ccc(NC(=O)C4CC4)c(C#N)c3)n2)cc1OC [compound 558, 4-[(4-{3-Cyano-4-[(cyclopropylcarbonyl)amino]phenyl}pyrimidin-2-yl)amino]-2-methoxy-N-(2-methoxyethyl) benzamide]
- pIC50 (IKKε): > 8.30
- pIC50 (TBK1): > 8.00

Structure (SMILES): N#Cc1cc(-c2ccnc(Nc3ccc(F)c(OCC(O)CO)c3)n2)ccc1OC1CCOCC1 (stereo not drawn) [compound 608, 5-(2-{[3-(2,3-Dihydroxypropoxy)-4-fluorophenyl]amino}pyrimidin-4-yl)-2-(tetrahydro-2H-pyran-4-yloxy)benzonitrile]
- pIC50 (IKKε): > 8.30
- pIC50 (TBK1): > 8.00

Structure (SMILES): COc1cc(Nc2nc(-c3ccc(OC4CCOCC4)c(C#N)c3)c3nc[nH]c3n2)ccc1N1CCOCC1 [compound 633, 5-(2-{[3-Methoxy-4-(morpholin-4-yl)phenyl]amino}-3H-purin-6-yl)-2-(tetrahydro-2H-pyran-4-yloxy)benzonitrile]
- pIC50 (IKKε): 7.30 to 8.30
- pIC50 (TBK1): > 8.00

Structure (SMILES): C[C@H](O)C(=O)N1CCC(Oc2ccc(-c3ccnc(Nc4ccc(C(=O)NCCCN(C)C)cc4)n3)cc2C#N)CC1 [Example 4, 4-({4-[3-cyano-4-({1-[(2S)-2-hydroxypropanoyl]piperidin-4-yl}oxy)phenyl]pyrimidin-2-yl}amino)-N-[3-(dimethylamino)propyl]benzamide]
- pIC50 (IKKε): > 8.30
- pIC50 (TBK1): > 8.00

Structure (SMILES): N#Cc1cc(-c2ccnc(Nc3ccc(N4CCOCC4)cc3)n2)ccc1O [Example 130, 2-Hydroxy-5-(2-{[4-(morpholin-4-yl)phenyl]amino}pyrimidin-4-yl)benzonitrile]
- pIC50 (IKKε): > 8.30
- pIC50 (TBK1): > 8.00

Structure (SMILES): COc1cc(NC(=O)NC2CCCC2)cc(Nc2nccc(-c3ccc(OC)c(C#N)c3)n2)c1 [compound 332, 1-(3-{[4-(3-Cyano-4-methoxyphenyl)pyrimidin-2-yl]amino}-5-methoxyphenyl)-3-cyclopentylurea]
- pIC50 (IKKε): 7.30 to 8.30
- pIC50 (TBK1): 7.00 to 8.00

Structure (SMILES): N#Cc1cc(-c2ccnc(Nc3ccccc3)n2)ccc1OC1CCOCC1 [Example 12]
- pIC50 (IKKε): 7.30 to 8.30
- pIC50 (TBK1): 7.00 to 8.00

Structure (SMILES): N#Cc1cc(-c2ccnc(Nc3ccc(CS(=O)(=O)N4CCCC4)cc3)n2)ccc1OC1CCOCC1 [compound 403, 5-[2-({4-[(Pyrrolidin-1-ylsulfonyl)methyl]phenyl}amino)pyrimidin-4-yl]-2-(tetrahydro-2H-pyran-4-yloxy)benzonitrile]
- pIC50 (IKKε): > 8.30
- pIC50 (TBK1): > 8.00

Structure (SMILES): COCCNC(=O)c1ccc(Nc2nccc(-c3ccc(OCC4CC4)c(C#N)c3)n2)cc1 [compound 666]
- pIC50 (IKKε): > 8.30
- pIC50 (TBK1): > 8.00
